Data set [1] has as its target T1, GHRH receptor (Homo sapiens, UniProt Q02643).
T1 construct: Normal human pituitaries were purchased from the National Hormone and Peptide Program; tissue National Hormone and Peptide Program (A. F. Parlow); host or cells: normal human pituitary, membrane fraction
T1 sequence (Q02643 23-423): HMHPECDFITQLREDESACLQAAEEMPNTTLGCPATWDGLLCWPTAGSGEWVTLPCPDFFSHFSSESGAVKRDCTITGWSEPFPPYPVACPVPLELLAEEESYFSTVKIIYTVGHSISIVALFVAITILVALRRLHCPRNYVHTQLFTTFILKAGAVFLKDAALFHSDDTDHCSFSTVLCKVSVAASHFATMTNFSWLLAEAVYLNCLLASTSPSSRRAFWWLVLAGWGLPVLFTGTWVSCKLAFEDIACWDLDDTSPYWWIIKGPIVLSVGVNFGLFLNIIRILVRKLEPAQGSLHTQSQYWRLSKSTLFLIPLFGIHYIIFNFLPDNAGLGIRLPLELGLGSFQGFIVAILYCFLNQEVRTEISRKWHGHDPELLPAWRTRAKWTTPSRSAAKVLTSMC
Put plainly: GHRH receptor binding, [His1,125I-Tyr10,Nle27]hGHRH(1-32)NH2 ligand competition, human pituitary membrane homogenates (Table 6). To be noted: for IC50: [His1,125I-Tyr10,Nle27]hGHRH(1-32)NH2, human pituitary membranes. The procedure:
(§1) Receptor binding assay Ligand competition assay with ^125I-labeled [His^1, Nle^27]hGH-RH(1-32)-NH2 was used to determine the binding affinities of the novel hGH-RH agonists to membrane receptors of rat anterior pituitary cells. The methods used have been described in detail (Halmos G, et al. Receptor 3: 87-97, 1993), here by incorporated by reference. Briefly, radioidonated [His^1, Nle^27]hGH-RH(1-32)-NH2 is prepared by the chloramines-T method. […] IC50 is the dose of the tested peptides causing 50% inhibition of specific binding to receptors.
Preparation of human pituitary membrane fraction and receptor binding of GHRH agonists were performed as previously described, by using a sensitive in vitro ligand competition assay based on binding of ^125I-labeled [His^1, Nle^27]hGHRH(1-32)NH2 to human pituitary membrane homogenates. Normal human pituitaries were purchased from the National Hormone and Peptide Program (A. F. Parlow, Los Angeles, County Harbor—UCLA Medical Center, Torrance, Calif.).

In data set [2] the target is T1, GHRH receptor. Put plainly: GHRH receptor binding, 125I-labeled JV-1-42 ligand competition, human pituitary membrane homogenates (Table 5). The method, then:
as §1
Preparation of human pituitary membrane fraction and receptor binding of GHRH agonists were performed as previously described, by using a sensitive in vitro ligand competition assay based on binding of ^125I-labeled JV-1-42 to human pituitary membrane homogenates. Normal human pituitaries were purchased from the National Hormone and Peptide Program (A. F. Parlow, Los Angeles, County Harbor-UCLA Medical Center, Torrance, Calif.). Briefly, in competitive binding analysis, ^125I-labeled JV-1-42 (˜0.2 nM) was displaced by GHRH agonists at 10^−6 to 10^−12 M.
The final binding affinities were expressed as IC50 values and were calculated by using the LIGAND PC computerized curve-fitting program of Munson and Rodbard as modified by McPherson.

Data set [3] has as its system GH release. Kind of data set: In vivo GH release after subcutaneous administration. To be noted: rat, s.c. The method, then:
Blood samples are taken from the jugular vein; 5, 15 and 30 minutes or only 15 and 30 minutes after the injection. The blood samples are centrifuged, plasma is removed and the GH level is measured by ELISA. The results are summarized in terms of potency in Table 9.

The subject of data set [4] is GH release. Kind of data set: In vivo GH release after intravenous administration. To be noted: rat, i.v. The method, then:
The blood samples are centrifuged, plasma is removed and the GH level is measured by ELISA.

The target in data set [5] is T1, GHRH receptor. Kind of data set: GHRH receptor binding, 125I-labeled JV-1-42 ligand competition, human pituitary membrane homogenates (Table 7). To be noted: 125I-labeled JV-1-42, human pituitary membranes. The procedure:
Preparation of human pituitary membrane fraction and receptor binding of GHRH agonists were performed as previously described, by using a sensitive in vitro ligand competition assay based on binding of ^125I-labeled JV-1-42 to human pituitary membrane homogenates. Normal human pituitaries were purchased from the National Hormone and Peptide Program (A. F. Parlow, Los Angeles, County Harbor-UCLA Medical Center, Torrance, Calif.).

The conditions of data set [6]: given subcutaneously twice a day; cited from earlier work.
Data set [7] deals with dipeptidylpeptidase IV (DPP-IV) (Homo sapiens, UniProt P27487). To be noted: cited from earlier work.
dipeptidylpeptidase IV (DPP-IV), sequence (P27487 39-766 limits assumed, species assumed): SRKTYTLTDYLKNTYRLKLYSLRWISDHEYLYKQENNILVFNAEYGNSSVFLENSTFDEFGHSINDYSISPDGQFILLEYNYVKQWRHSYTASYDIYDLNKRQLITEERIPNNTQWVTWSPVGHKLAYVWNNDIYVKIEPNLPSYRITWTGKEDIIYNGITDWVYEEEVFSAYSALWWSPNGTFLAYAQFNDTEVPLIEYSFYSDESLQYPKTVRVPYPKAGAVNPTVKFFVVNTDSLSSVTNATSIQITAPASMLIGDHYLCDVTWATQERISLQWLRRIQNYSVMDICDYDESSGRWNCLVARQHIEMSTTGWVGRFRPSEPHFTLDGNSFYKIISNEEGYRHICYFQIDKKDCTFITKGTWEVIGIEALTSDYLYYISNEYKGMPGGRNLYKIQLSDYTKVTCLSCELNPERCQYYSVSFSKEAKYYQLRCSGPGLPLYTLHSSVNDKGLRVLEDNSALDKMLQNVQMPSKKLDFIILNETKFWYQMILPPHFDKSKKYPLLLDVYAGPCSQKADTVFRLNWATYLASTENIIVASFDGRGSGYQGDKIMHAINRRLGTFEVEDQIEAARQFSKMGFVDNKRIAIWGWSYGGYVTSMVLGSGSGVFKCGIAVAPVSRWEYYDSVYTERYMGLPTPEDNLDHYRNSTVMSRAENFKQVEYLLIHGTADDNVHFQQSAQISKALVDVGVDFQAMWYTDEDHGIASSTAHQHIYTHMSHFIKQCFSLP

Entries after “also recorded” stand apart in the source; their conditions may differ. Square brackets hold non-standard residues; d marks the D form. Peptide text beside a SMILES is read from it. * marks the point of attachment. Phe(F5) = N[C@@H](Cc1c(F)c(F)c(F)c(F)c1F)C(=O)O; Desaminotyrosyl = O=C(CCc1ccc(O)cc1)*; NMeY = CN[C@@H](Cc1ccc(O)cc1)C(=O)O; hArg = N=C(N)NCCCC[C@H](N)C(=O)O; Nle = CCCC[C@H](N)C(=O)O; Orn = NCCC[C@H](N)C(=O)O; Abu = CC[C@H](N)C(=O)O; GABA = NCCCC(=O)O

As a reminder, the IC50 is the concentration needed to halve the response being measured. A low value points to inhibition by little substance. In data set [1], `CCCC[C@H](NC(=O)[C@@H](NC(=O)[C@H](CC(=O)O)NC(=O)[C@H](CCC(N)=O)NC(=O)[C@H](CC(C)C)NC(=O)[C@H](CC(C)C)NC(=O)[C@H](CCCN)NC(=O)[C@H](CCCNC(=N)N)NC(=O)[C@H](C)NC(=O)[C@H](CO)NC(=O)[C@H](CC(C)C)NC(=O)[C@H](CCC(N)=O)NC(=O)[C@H](CC)NC(=O)[C@H](CC(C)C)NC(=O)[C@@H](NC(=O)[C@H](CCCN)NC(=O)[C@H](CCCNC(=N)N)NC(=O)[C@H](Cc1ccc(O)cc1)NC(=O)[C@H](CO)NC(=O)[C@@H](NC(=O)[C@@H](NC(=O)[C@H](Cc1ccccc1)NC(=O)[C@@H](NC(=O)[C@H](C)NC(=O)[C@H](CC(=O)O)NC(=O)[C@@H](C)NC(=O)CCc1ccc(O)cc1)[C@@H](C)CC)[C@@H](C)O)[C@@H](C)O)C(C)C)[C@@H](C)CC)C(=O)N[C@@H](CC(=O)O)C(=O)N[C@@H](CCCNC(=N)N)C(=O)N[C@@H](CCCCNC(=N)N)C(N)=O` [Peptide P-23254, [Dat^1, D-Ala^2, Thr^8, Orn^12, Abu^15, Orn^21, Nle^27, Asp^28, Har^30]hGH-RH(1-30)NH2] (Desaminotyrosyl-[dA]DAIFTTSYR[Orn]VL[Abu]QLSAR[Orn]LLQDI[Nle]DR[hArg]-NH2) gave an IC50 of 0.07 nM.

`CCCC[C@H](NC(=O)[C@@H](NC(=O)[C@H](CC(=O)O)NC(=O)[C@H](CCC(N)=O)NC(=O)[C@H](CC(C)C)NC(=O)[C@H](CC(C)C)NC(=O)[C@H](CCCN)NC(=O)[C@H](CCCNC(=N)N)NC(=O)[C@H](C)NC(=O)[C@H](CO)NC(=O)[C@H](CC(C)C)NC(=O)[C@H](CCC(N)=O)NC(=O)[C@H](CC)NC(=O)[C@H](CC(C)C)NC(=O)[C@@H](NC(=O)[C@H](CCCN)NC(=O)[C@H](CCCNC(=N)N)NC(=O)[C@H](Cc1ccc(O)cc1)NC(=O)[C@H](CO)NC(=O)[C@H](C)NC(=O)[C@@H](NC(=O)[C@H](Cc1ccccc1)NC(=O)[C@@H](NC(=O)[C@H](C)NC(=O)[C@H](CC(=O)O)NC(=O)[C@@H](C)NC(=O)CCc1ccc(O)cc1)[C@@H](C)CC)[C@@H](C)O)C(C)C)[C@@H](C)CC)C(=O)N[C@@H](CC(=O)O)C(=O)N[C@@H](CCCNC(=N)N)C(=O)N[C@@H](CCCCNC(=N)N)C(N)=O` [Peptide P-23256, [Dat^1, D-Ala^2, Ala^8, Orn^12, Abu^15, Orn^21, Nle^27, Asp^28, Har^30]hGH-RH(1-30)NH2] (Desaminotyrosyl-[dA]DAIFTASYR[Orn]VL[Abu]QLSAR[Orn]LLQDI[Nle]DR[hArg]-NH2) displayed an IC50 in data set [1] of 0.04 nM.

For the compound `CCCC[C@H](NC(=O)[C@@H](NC(=O)[C@H](CC(=O)O)NC(=O)[C@H](CCC(N)=O)NC(=O)[C@H](CC(C)C)NC(=O)[C@H](CC(C)C)NC(=O)[C@H](CCCN)NC(=O)[C@H](CCCNC(=N)N)NC(=O)[C@H](C)NC(=O)[C@H](CO)NC(=O)[C@H](CC(C)C)NC(=O)[C@H](CCC(N)=O)NC(=O)[C@H](CC)NC(=O)[C@H](CC(C)C)NC(=O)[C@@H](NC(=O)[C@H](CCCN)NC(=O)[C@H](CCCNC(=N)N)NC(=O)[C@H](Cc1ccc(O)cc1)NC(=O)[C@H](CO)NC(=O)[C@H](CC(N)=O)NC(=O)[C@@H](NC(=O)[C@H](Cc1c(F)c(F)c(F)c(F)c1F)NC(=O)[C@@H](NC(=O)[C@H](C)NC(=O)[C@H](CC(=O)O)NC(=O)[C@@H](C)NC(=O)CCc1ccc(O)cc1)[C@@H](C)CC)[C@@H](C)O)C(C)C)[C@@H](C)CC)C(=O)N[C@@H](CO)C(=O)N[C@@H](CCCNC(=N)N)C(=O)NCCCC(N)=O` [Peptide P-25502, [Dat^1, D-Ala^2, Fpa5^6, Orn^12, Abu^15, Orn^21, Nle^27, Gab^30]hGH-RH(1-30)NH2] (Desaminotyrosyl-[dA]DAI[Phe(F5)]TNSYR[Orn]VL[Abu]QLSAR[Orn]LLQDI[Nle]SR[GABA]-NH2), the IC50 stood at 0.07 nM in data set [2] (125I-labeled JV-1-42, human pituitary membranes) and 0.33 nM in data set [5]. Moreover, the “GH response after subcutaneous administration (in words)” value in data set [3] is “unusually high responses; also recorded: especially greater growth hormone levels than hGH-RH or JI-38”. Also, the “GH response after intravenous administration (in words)” value in data set [4] was “most potent”.

`CCCC[C@H](NC(=O)[C@@H](NC(=O)[C@H](CC(=O)O)NC(=O)[C@H](CCC(N)=O)NC(=O)[C@H](CC(C)C)NC(=O)[C@H](CC(C)C)NC(=O)[C@H](CCCN)NC(=O)[C@H](CCCNC(=N)N)NC(=O)[C@H](C)NC(=O)[C@H](CO)NC(=O)[C@H](CC(C)C)NC(=O)[C@H](CCC(N)=O)NC(=O)[C@H](CC)NC(=O)[C@H](CC(C)C)NC(=O)[C@@H](NC(=O)[C@H](CCCN)NC(=O)[C@H](CCCNC(=N)N)NC(=O)[C@H](Cc1ccc(O)cc1)NC(=O)[C@H](CO)NC(=O)[C@H](CCC(N)=O)NC(=O)[C@@H](NC(=O)[C@H](Cc1ccccc1)NC(=O)[C@@H](NC(=O)[C@H](C)NC(=O)[C@H](CC(=O)O)NC(=O)[C@@H](C)NC(=O)[C@H](Cc1ccc(O)cc1)NC)[C@@H](C)CC)[C@@H](C)O)C(C)C)[C@@H](C)CC)C(=O)N[C@@H](CC(=O)O)C(=O)N[C@@H](CCCNC(=N)N)C(=O)NC` [Peptide P-27403, [N—Me-Tyr^1, D-Ala^2, Gln^8, Orn^12, Abu^15, Orn^21, Nle^27, Asp^28]hGH-RH(1-29)NH—CH3] (H-[NMeY][dA]DAIFTQSYR[Orn]VL[Abu]QLSAR[Orn]LLQDI[Nle]DR-NHMe): the “GH response after subcutaneous administration (in words)” value in data set [3] was “unusually high responses; also recorded: especially greater growth hormone levels than hGH-RH or JI-38”. For the same compound, in data set [4], the “GH response after intravenous administration (in words)” value is on record as “most potent”. Further, the IC50 in data set [5] was determined as 0.16 nM.

Regarding “hGH-RH(1-29)NH2 [GHRH (1-29), reference compound]”, in data set [6], the “share of GH-deficient children in whom linear growth was promoted” value is given as “approximately 50%”. Also, the “Relative affinity (Binding potency) vs GHRH” value in data set [2] (relative to GHRH(1-29) = 1) and in data set [1] (relative to GHRH(1-29) = 1) was 1 throughout.

Take “hGH-RH: native human GH-RH, 44 amino acids with an amidated carboxyl terminus”: in data set [7], the “degradation in plasma via DPP-IV cleavage between residues 2 and 3” value is “rapidly degraded”.

(Values after patent publication US9079974B2, “GH-RH analogs with potent agonistic effects” (The University of Miami, priority 2011, dated 2015).)
